The source of these data is patent US10208067B2, “Compounds for treating spinal muscular atrophy” (Hoffmann-La Roche Inc., priority 2015, dated 2019).

Read-outs that look alike come from different tables or passages of the source.

The subject of experiment [1] is full length SMN2 minigene mRNA (HEK293H cells stably transfected with SMN2-A minigene). Nature of the experiment: RT-qPCR assay for SMN2 minigene pre-mRNA splicing in cultured cells. Format: cell-based. Conditions: Homo sapiens, HEK293-H, 24 hours. A general note: Quantitative PCR measures a nucleic acid by following its amplification.
For experiment [2], the system named is SMN protein in SMA patient fibroblast cells (GM03813). As to the kind of experiment: SMN protein assay (HTRF) in cultured cells. The experiment is classed as cell-based. The note with it: Homo sapiens, SMA Type 1 patient fibroblasts, 48 hours; for EC (1.5-fold): concentration producing 1.5 times SMN protein vs vehicle, read-out: EC1.5x SMN protein; for maximal fold induction: relative to vehicle control, read-out: max. fold increase of SMN protein. Here is the method: The SMN HTRF (homogeneous time resolved fluorescence) assay is used to quantify the level of SMN protein in SMA patient fibroblast cells treated with test compounds. Materials used and respective sources are listed below in Table 4.
Cells are thawed and cultured in DMEM-10% FBS for 72 hours. Cells are trypsinized, counted and re-suspended to a concentration of 25,000 cells/mL in DMEM-10% FBS. The cell suspensions are plated at 5,000 cells per well in a 96 well microtiter plate and incubated for […]. […] 1 μL of test compound solution is transferred to cell-containing wells and cells are incubated for 48 hours in a cell culture incubator (37° C., 5% CO2, 100% relative humidity). Triplicate samples are set up for each test compound concentration. After 48 hours, the supernatant is removed from the wells and 25 μL of the RIPA lysis buffer, containing protease inhibitors, is added to the wells and incubated with shaking at room temperature for 1 hour. 25 μL of the diluent is added and then 35 μL of the resulting lysate is transferred to a 384-well plate, where each well contains 5 μL of the antibody solution (1:100 dilution of anti-SMN d2 and anti-SMN cryptate in SMN reconstitution buffer). The plate is centrifuged for 1 minute to bring the solution to the bottom of the wells, then incubated overnight at room temperature. Fluorescence for each well of the plate at 665 nm and 620 nm is measured on an EnVision multilabel plate reader (Perkin-Elmer).
The normalized fluorescence signal is calculated for each sample, Blank and vehicle control well by dividing the signal at 665 nm by the signal at 620 nm. Normalizing the signal accounts for possible fluorescence quenching due to the matrix effect of the lysate. The ΔF value (a measurement of SMN protein abundance as a percent value) for each sample well is calculated by subtracting the normalized average fluorescence for the Blank control wells from the normalized fluorescence for each sample well, then dividing this difference by the normalized average fluorescence for the Blank control wells and multiplying the resulting value by 100. The ΔF value for each sample well represents the SMN protein abundance from test compound-treated samples. The ΔF value for each sample well is divided by the ΔF value for the vehicle control wells to calculate the fold increase in SMN protein abundance relative to the vehicle control. Table 5 provides EC1-5× concentrations for SMN protein expression that was obtained from the 7-point concentration data generated according to the above procedure for particular compounds of the present invention.
Table 6 provides the maximum fold increase of SMN protein that was obtained from the 7-point concentration data generated according to the above procedure for particular compounds of the present invention

Setting [3] is: concentration increasing full length SMN2 minigene mRNA 1.5-fold vs vehicle, read-out: EC1.5x minigene.
[4] abbreviates: Table 3 (title: production of full length SMN2 minigene mRNA), read-out: EC1.5x SMN protein.

As for `Cc1nc2ncc(-c3cc(=O)n4cc(N5CCNCC5)ccc4n3)cn2n1` [Example 1, 2-(2-methyl-[1,2,4]triazolo[1,5-a]pyrimidin-6-yl)-7-piperazin-1-yl-pyrido[1,2-a]pyrimidin-4-one], the EC (1.5-fold) in experiment [1] (setting [3]) was found to be 0.0584 µM. In addition, in experiment [2], the EC (1.5-fold) worked out at 0.221 µM and the maximal fold induction was 1.9.

For the compound `Cc1nc2ncc(-c3cc(=O)n4cc(N5C[C@@H](C)N[C@@H](C)C5)ccc4n3)cn2n1` [Example 2, 7-[(3R,5S)-3,5-dimethylpiperazin-1-yl]-2-(2-methyl-[1,2,4]triazolo[1,5-a]pyrimidin-6-yl)pyrido[1,2-a]pyrimidin-4-one], in experiment [1] (setting [3]), the EC (1.5-fold) was found to be 0.067 µM. In experiment [2], the EC (1.5-fold) was found to be 0.508 µM and the maximal fold induction was 1.93.

On to `Cc1nc2ncc(-c3cc(=O)n4cc(N5CC[C@@H](N(C)C)C5)ccc4n3)cn2n1` [Example 3, 7-[(3R)-3-(dimethylamino)pyrrolidin-1-yl]-2-(2-methyl-[1,2,4]triazolo[1,5-a]pyrimidin-6-yl)pyrido[1,2-a]pyrimidin-4-one], for which the EC (1.5-fold) in experiment [1] (setting [3]) was determined as 0.0452 µM. Besides, in experiment [2], the EC (1.5-fold) came to 0.52 µM and the maximal fold induction was determined as 1.79.

As to `Cc1nc2ncc(-c3cc(=O)n4cc(N5CCCN(C)CC5)ccc4n3)cn2n1` [Example 4, 7-(4-methyl-1,4-diazepan-1-yl)-2-(2-methyl-[1,2,4]triazolo[1,5-a]pyrimidin-6-yl)pyrido[1,2-a]pyrimidin-4-one], the EC (1.5-fold) in experiment [1] (setting [3]) is 0.1 µM. Also, in experiment [2], the EC (1.5-fold) was determined as 0.324 µM and the maximal fold induction stood at 1.78.

Take `Cc1nc2ncc(-c3cc(=O)n4cc(N5CC6(CCNCC6)C5)ccc4n3)cn2n1` [Example 5, 7-(2,7-diazaspiro[3.5]nonan-2-yl)-2-(2-methyl-[1,2,4]triazolo[1,5-a]pyrimidin-6-yl)pyrido[1,2-a]pyrimidin-4-one]: in experiment [1] (setting [3]), the EC (1.5-fold) is < 0.0317 µM. For the same compound, in experiment [2], the EC (1.5-fold) is 0.106 µM and the maximal fold induction came to 1.99.

Take `Cc1nc2ncc(-c3cc(=O)n4cc(N5CCNC(C)(C)C5)ccc4n3)cn2n1` [Example 6, 7-(3,3-dimethylpiperazin-1-yl)-2-(2-methyl-[1,2,4]triazolo[1,5-a]pyrimidin-6-yl)pyrido[1,2-a]pyrimidin-4-one]: in experiment [1] (setting [3]), the EC (1.5-fold) was 0.201 µM. In addition, in experiment [2], the EC (1.5-fold) is 2.15 µM and the maximal fold induction amounted to 1.7.

For the compound `Cc1nc2ncc(-c3cc(=O)n4cc(N5CC6(CNC6)C5)ccc4n3)cn2n1` [Example 7, 7-(2,6-diazaspiro[3.3]heptan-2-yl)-2-(2-methyl-[1,2,4]triazolo[1,5-a]pyrimidin-6-yl)pyrido[1,2-a]pyrimidin-4-one], the EC (1.5-fold) in experiment [1] (setting [3]) came to 0.107 µM; in experiment [2] it was 0.247 µM. For the same compound, the maximal fold induction in experiment [2] was found to be 1.78.

In the case of `Cc1nc2ncc(-c3cc(=O)n4cc(N5CC6CN(C)CC6C5)ccc4n3)cn2n1` (stereo not drawn) [Example 8], in experiment [1] (setting [3]), the EC (1.5-fold) worked out at 0.0659 µM. In experiment [2], the EC (1.5-fold) was determined as 0.313 µM and the maximal fold induction turned out to be 1.85.

On to `Cc1nc2ncc(-c3cc(=O)n4cc(N5CC6CNC6C5)ccc4n3)cn2n1` (stereo not drawn) [Example 9, 7-(3,6-diazabicyclo[3.2.0]heptan-3-yl)-2-(2-methyl-[1,2,4]triazolo[1,5-a]pyrimidin-6-yl)pyrido[1,2-a]pyrimidin-4-one], for which the EC (1.5-fold) in experiment [1] (setting [3]) is 0.283 µM. In experiment [2], the EC (1.5-fold) was 2.88 µM and the maximal fold induction is 1.9.

With `Cc1nc2ncc(-c3cc(=O)n4cc(N5CCN(C6CNC6)CC5)ccc4n3)cn2n1` [Example 10, 7-[4-(azetidin-3-yl)piperazin-1-yl]-2-(2-methyl-[1,2,4]triazolo[1,5-a]pyrimidin-6-yl)pyrido[1,2-a]pyrimidin-4-one], the EC (1.5-fold) in experiment [1] (setting [3]) worked out at 5.93 µM. Moreover, in experiment [2], the EC (1.5-fold) amounted to 30 µM and the maximal fold induction amounted to 1.5.

As to `Cc1nc2ncc(-c3cc(=O)n4cc(N5C[C@H](C)N[C@@H](C)C5)ccc4n3)cn2n1` [Example 11, 7-[(3S,5S)-3,5-dimethylpiperazin-1-yl]-2-(2-methyl-[1,2,4]triazolo[1,5-a]pyrimidin-6-yl)pyrido[1,2-a]pyrimidin-4-one], the EC (1.5-fold) is < 0.03 µM in experiment [1] (setting [3]) and 0.175 µM in experiment [2]. The maximal fold induction in experiment [2] was 1.77.

Take `Cc1nc2ncc(-c3cc(=O)n4cc(N5CCC(CN6CCCC6)CC5)ccc4n3)cn2n1` [Example 12, 7-[4-(pyrrolidin-1-ylmethyl)-1-piperidyl]-2-(2-methyl-[1,2,4]triazolo[1,5-a]pyrimidin-6-yl)-pyrido[1,2-a]pyrimidin-4-one]: the EC (1.5-fold) in experiment [1] (setting [3]) worked out at 0.161 µM. In addition, in experiment [2], the EC (1.5-fold) was > 31.6 µM and the maximal fold induction was determined as 1.36.

For `Cc1nc2ncc(-c3cc(=O)n4cc(N5CCNC6(CC6)C5)ccc4n3)cn2n1` [Example 13, 7-(4,7-diazaspiro[2.5]octan-7-yl)-2-(2-methyl-[1,2,4]triazolo[1,5-a]pyrimidin-6-yl)pyrido[1,2-a]pyrimidin-4-one], in experiment [1] (setting [3]), the EC (1.5-fold) amounted to 2.55 µM. In experiment [2], the EC (1.5-fold) turned out to be 14.1 µM and the maximal fold induction is 1.52.

Take `Cc1nc2ncc(-c3cc(=O)n4cc(N5CCN(C6COC6)CC5)ccc4n3)cn2n1` [Example 14, 7-[4-(oxetan-3-yl)piperazin-1-yl]2-(2-methyl-[1,2,4]triazolo[1,5-a]pyrimidin-6-yl)pyrido[1,2-a]pyrimidin-4-one]: the EC (1.5-fold) in experiment [1] (setting [3]) is 26.2 µM. Besides, in experiment [2], the EC (1.5-fold) was > 31.6 µM and the maximal fold induction is 1.35.

For `Cc1nc2ccc(-c3cc(=O)n4cc(N5CCNCC5)cc(C)c4n3)nn2n1` [Example 15, 9-methyl-7-piperazin-1-yl-2-(2-methyl-[1,2,4]triazolo[1,5-b]pyridazin-6-yl)pyrido[1,2-a]pyrimidin-4-one], the EC (1.5-fold) in experiment [1] (setting [3]) was < 0.03 µM. For the same compound, in experiment [2], the EC (1.5-fold) is < 0.03 µM and the maximal fold induction was 1.82.

Regarding `Cc1nc2ncc(-c3cc(=O)n4cc(N5CCN[C@@H](C)C5)ccc4n3)cn2n1` [Example 16, 7-[(3S)-3-methylpiperazin-1-yl]-2-(2-methyl-[1,2,4]triazolo[1,5-a]pyrimidin-6-yl)pyrido[1,2-a]pyrimidin-4-one], in experiment [1] (setting [3]), the EC (1.5-fold) came out at 0.115 µM. In experiment [2], the EC (1.5-fold) was 0.281 µM and the maximal fold induction was found to be 1.71.

With `Cc1nc2ccc(-c3cc(=O)n4cc(N5CCN[C@H](C)C5)ccc4n3)nn2n1` [Example 17, 7-[(3R)-3-methylpiperazin-1-yl]-2-(2-methyl-[1,2,4]triazolo[1,5-b]pyridazin-6-yl)pyrido[1,2-a]pyrimidin-4-one], the EC (1.5-fold) in experiment [1] (setting [3]) came out at 0.0191 µM; in experiment [2] it was 0.0932 µM. Besides, the maximal fold induction in experiment [2] is 1.82.

With `Cc1nc2ccc(-c3cc(=O)n4cc(N5CCN[C@@H](C)C5)ccc4n3)nn2n1` [Example 18, 7-[(3S)-3-methylpiperazin-1-yl]-2-(2-methyl-[1,2,4]triazolo[1,5-b]pyridazin-6-yl)pyrido[1,2-a]pyrimidin-4-one], the EC (1.5-fold) in experiment [1] (setting [4]) was 0.0176 µM. Further, in experiment [2], the EC (1.5-fold) turned out to be 0.0515 µM and the maximal fold induction was 1.72.

Turning to `Cc1nc2ccc(-c3cc(=O)n4cc(N5CCNCC5)ccc4n3)nn2n1` [Example 19, 7-piperazin-1-yl-2-(2-methyl-[1,2,4]triazolo[1,5-b]pyridazin-6-yl)pyrido[1,2-a]pyrimidin-4-one], the EC (1.5-fold) was found to be 0.009 µM in experiment [1] (setting [4]) and 0.0392 µM in experiment [2]. For the same compound, the maximal fold induction in experiment [2] came to 1.81.

Take `Cc1nc2ccc(-c3cc(=O)n4cc(N5CCCN(C)CC5)ccc4n3)nn2n1` [Example 20, 7-(4-methyl-1,4-diazepan-1-yl)-2-(2-methyl-[1,2,4]triazolo[1,5-b]pyridazin-6-yl)pyrido[1,2-a]pyrimidin-4-one]: the EC (1.5-fold) in experiment [1] (setting [4]) came out at 0.0418 µM. Moreover, in experiment [2], the EC (1.5-fold) was 0.12 µM and the maximal fold induction was 1.77.

Consider `Cc1nc2ncc(-c3cc(=O)n4cc(N5CC6(CN(C)C6)C5)ccc4n3)cn2n1` [Example 21, 7-(6-methyl-2,6-diazaspiro[3.3]heptan-2-yl)-2-(2-methyl-[1,2,4]triazolo[1,5-a]pyrimidin-6-yl)pyrido[1,2-a]pyrimidin-4-one], for which the EC (1.5-fold) in experiment [1] (setting [4]) stood at 0.145 µM; in experiment [2], 0.56 µM. In addition, in experiment [2], the maximal fold induction came to 1.6.
